From US12637471B2, “Heterocyclic compounds, compositions, methods of preparation and uses thereof” (Organon R&D Finland Ltd, priority 2021, dated 2026) come the findings set out here.

Type in all cases: biochemical
For experiment [1], the target named is T1, Recombinant human AKR1C3 (17β-HSD5) protein (Homo sapiens, UniProt P42330).
T1 construct: made in house; host or cells: E. coli
T1 sequence (P42330 1-323): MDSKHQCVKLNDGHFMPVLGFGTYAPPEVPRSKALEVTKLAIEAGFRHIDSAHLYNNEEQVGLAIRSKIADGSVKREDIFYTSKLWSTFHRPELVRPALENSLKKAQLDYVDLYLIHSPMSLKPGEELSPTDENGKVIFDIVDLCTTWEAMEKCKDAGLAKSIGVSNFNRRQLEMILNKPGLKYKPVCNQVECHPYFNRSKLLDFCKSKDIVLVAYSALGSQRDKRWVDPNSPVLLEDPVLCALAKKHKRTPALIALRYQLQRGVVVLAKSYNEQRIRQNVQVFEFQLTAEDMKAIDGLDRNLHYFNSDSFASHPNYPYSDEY
The experiment in a line: Inhibition of AKR1C3 (17β-hydroxysteroid dehydrogenase type 5) enzyme, fluorescence assay. The settings on record: inhibitor at 500 nM. Here is the method:
Inhibition of AKR1C3 (17β-Hydroxysteroid Dehydrogenase Type 5) Enzyme
Recombinant human AKR1C3 (17β-HSD5) protein (GenBank Accession No. NM_003739.6) produced in E. coli was used for screening. Recombinant protein (27 nM/1 μg/ml) was incubated in 20 mM KH2PO4, 1 mM EDTA, complete protease inhibitor cocktail, pH 7.4 with 1 μM 9-acetyl-2,3,6,7-tetrahydro-1H,5H,11H-pyrano[2,3-f]pyrido[3,2,1-ij]quinolin-11-one and 1 mM NADPH for 60 to 120 min at RT, in the presence of the potential inhibitor at 500 nM concentration. Inhibitor stock solutions were prepared in DMSO. Final concentration of DMSO was adjusted to 1% in all samples. The samples were analysed by fluorescent measurement with Tecan Spark microplate reader at wavelengths 420 nm for excitation and 510 nm for emission. Samples were evaluated against standards of 9-(1-hydroxyethyl)-2,3,6,7-tetrahydro-1H,5H,11H-pyrano[2,3-f]pyrido[3,2,1-ij]quinolin-11-one at concentrations 1 μM-10 nM. Background fluorescence was reduced from all the samples and standards. The concentrations of formed product were calculated from the standard curve with Tecan Spark Magellan software. The formed product concentrations were used to calculate conversion percentages. The inhibition percentages for the samples were calculated from the conversion percentages.
Inhibition percentages of samples were calculated using following formula: […]

Experiment [2] addresses T2, Recombinant human aldo-keto reductase family 1 member C2 (AKR1C2) protein (Homo sapiens, UniProt P52895).
T2 construct: made in house; host or cells: Sf-9 insect cells (baculovirus)
T2 sequence (P52895 1-323): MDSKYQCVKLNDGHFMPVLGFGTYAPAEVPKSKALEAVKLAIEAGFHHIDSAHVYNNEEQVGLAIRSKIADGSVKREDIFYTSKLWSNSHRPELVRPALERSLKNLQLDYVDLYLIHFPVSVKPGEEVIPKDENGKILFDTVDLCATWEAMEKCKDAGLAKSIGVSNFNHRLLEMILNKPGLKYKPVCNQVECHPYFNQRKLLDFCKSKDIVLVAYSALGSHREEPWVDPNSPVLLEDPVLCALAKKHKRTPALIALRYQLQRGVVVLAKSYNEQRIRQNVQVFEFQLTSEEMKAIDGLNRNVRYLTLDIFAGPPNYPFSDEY
The experiment in a line: Inhibition of the aldo-keto reductase family 1 member C2, 3H-dihydrotestosterone conversion. As to conditions: inhibitor at 10 μM. The procedure: Inhibition of the Aldo-Keto Reductase Family 1 Member C2
Recombinant human aldo-keto reductase family 1 member C2 (AKR1C2) protein (GenBank Accession No. NM_001354.6) produced in Sf-9 insect cells with baculovirus was used for screening. Recombinant protein (13.6 nM/0.5 μg/ml) was incubated in 20 mM KH2PO4 pH 7.4, 1 mM EDTA, complete protease inhibitor tablet, 1 mM NADPH with 6.25 nM ^3H-labelled dihydrotestosterone for 45 min at +37° C., in the presence of the potential inhibitor at 10 μM concentration. Inhibitor stock solutions were prepared in DMSO. Final concentration of DMSO was adjusted to 1% in all samples. The enzyme reaction was stopped by addition of 10% trichloroacetic acid (final concentration 1%). Samples were filtrated through […] filtration plate (Merck). Analyses of samples was done with Waters Acquity UPLC H-class equipped with XBridge C18 column and XBridge VanGuard C18 guard column. Acetonitrile: 0.1% formic acid in water (42/58 v/v) with flow of 1.2 ml/min was used for mobile phase. The eluent was mixed with scintillant and the radioactivity was monitored in the eluate by a Scintillation Analyser. The conversion percentage of triated substrate (dihydrotestosterone) to tritiated product (5α-androstane-3α,17β-diol) for each sample was determined by the relative percentages of substrate and product in the chromatogram. The inhibition percentages of samples were calculated using following formula: […]

Experiment [3] has as its target T3, 17β-Hydroxysteroid Dehydrogenase Type 2 Enzyme (17β-HSD2) (Homo sapiens, UniProt P37059).
T3 construct: made in house; host or cells: Sf-9 insect cells (baculovirus)
T3 sequence (P37059 1-387): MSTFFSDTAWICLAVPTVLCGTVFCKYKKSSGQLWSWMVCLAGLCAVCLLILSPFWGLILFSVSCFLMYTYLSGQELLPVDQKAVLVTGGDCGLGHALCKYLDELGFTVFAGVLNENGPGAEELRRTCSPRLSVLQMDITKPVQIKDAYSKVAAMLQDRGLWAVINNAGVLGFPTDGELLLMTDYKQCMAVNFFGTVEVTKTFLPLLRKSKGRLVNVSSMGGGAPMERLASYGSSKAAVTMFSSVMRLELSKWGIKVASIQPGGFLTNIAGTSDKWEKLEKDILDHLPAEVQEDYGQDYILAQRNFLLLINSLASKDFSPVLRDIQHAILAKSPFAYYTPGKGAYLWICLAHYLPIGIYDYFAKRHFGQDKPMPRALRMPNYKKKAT
The experiment in a line: Inhibition of the 17β-hydroxysteroid dehydrogenase type 2 enzyme, 3H-testosterone conversion. The settings on record: inhibitor at 10 μM. The procedure:
Inhibition of the 17β-Hydroxysteroid Dehydrogenase Type 2 Enzyme
Recombinant human 173-HSD2 protein (GenBank Accession No. NM_002153.3) produced in Sf-9 insect cells with baculovirus was used for screening.
Recombinant protein (105 nM/4.5 μg/ml) was incubated in 20 mM KH2PO4 pH 8.5, 1 mM EDTA, complete protease inhibitor cocktail, 1 mM NAD with 56.25 nM testosterone (including ^3H-labelled testosterone) for 30 min at RT, in the presence of the potential inhibitor at 10 μM concentration. Inhibitor stock solutions were prepared in DMSO. Final concentration of DMSO was adjusted to 1% in all samples. The enzyme reaction was stopped by addition of 10% trichloroacetic acid (final concentration 1%). Samples were filtrated through […] filtration plate. Analyses of samples was done with Waters Acquity UPLC H-class equipped with XBridge C18 column and XBridge VanGuard C18 guard column. Acetonitrile: 0.1% formic acid in water (42/58 v/v) with flow of 1.2 ml/min was used for mobile phase. The eluent was mixed with scintillant and the radioactivity was monitored in the eluate by a Scintillation Analyser. The conversion percentage of tritiated substrate (testosterone) to product tritiated (androstenedione) for each sample was determined by the relative percentages of substrate and product in the chromatogram. The inhibition percentages of samples were calculated using following formula: […]

Broadly, the inhibition is the drop in the measured response relative to a control, in per cent. Regarding `CN(C)C(=O)N1CCC(=C(C#N)c2ccc(F)cc2)CC1` [Compound 16, 4-(cyano(4-fluorophenyl)methylene)-N,N-dimethylpiperidine-1-carboxamide], the inhibition at 0.5 µM in experiment [1] is 97%. Besides, the inhibition at 10 µM in experiment [2] stood at 8%; in experiment [3], 14%.

With `COC1CCN(C(=O)N2CCC(=C(C#N)c3cccc(Cl)c3)CC2)CC1` [Compound 17, 2-(3-chlorophenyl)-2-(1-(4-methoxypiperidine-1-carbonyl)piperidin-4-ylidene)acetonitrile], the inhibition at 0.5 µM in experiment [1] came out at 98%. For the same compound, the inhibition at 10 µM in experiment [2] was 8%; in experiment [3], 31%.

For `N#CC(=C1CCN(C(=O)N2CCC(O)CC2)CC1)c1ccc(Cl)cc1` [Compound 18, 2-(4-chlorophenyl)-2-(1-(4-hydroxypiperidine-1-carbonyl)piperidin-4-ylidene)acetonitrile], the inhibition at 0.5 µM in experiment [1] is 99%. Besides, the inhibition at 10 µM worked out at 7% in experiment [2] and 11% in experiment [3].

On to `N#CC(=C1CCN(C(=O)N2CCC(CO)CC2)CC1)c1ccc(F)cc1` [Compound 19, 2-(4-fluorophenyl)-2-(1-(4-(hydroxymethyl)piperidine-1-carbonyl)piperidin-4-ylidene)acetonitrile], for which the inhibition at 0.5 µM in experiment [1] amounted to 99%. Also, the inhibition at 10 µM in experiment [2] was found to be 12%; in experiment [3], 19%.

On to `CCOC1CCN(C(=O)N2CCC(=C(C#N)c3ccc(F)cc3)CC2)CC1` [Compound 20, 2-(1-(4-ethoxypiperidine-1-carbonyl)piperidin-4-ylidene)-2-(4-fluorophenyl)acetonitrile], for which, in experiment [1], the inhibition at 0.5 µM was determined as 97%. Further, the inhibition at 10 µM in experiment [2] came to 2%; in experiment [3] it was 9%.

On to `CC(O)C1CCN(C(=O)N2CCC(=C(C#N)c3ccc(F)cc3)CC2)CC1` (stereo not drawn) [Compound 21, 2-(4-fluorophenyl)-2-(1-(4-(1-hydroxyethyl)piperidine-1-carbonyl)piperidin-4-ylidene)acetonitrile], for which the inhibition at 0.5 µM in experiment [1] was found to be 95%. For the same compound, the inhibition at 10 µM came to 9% in experiment [2] and 20% in experiment [3].

On to `COC1CN(C(=O)N2CCC(=C(C#N)c3ccc(F)cc3)CC2)C1` [Compound 22, 2-(4-fluorophenyl)-2-(1-(3-methoxyazetidine-1-carbonyl)piperidin-4-ylidene)acetonitrile], for which the inhibition at 0.5 µM in experiment [1] came out at 88%. Moreover, the figures for the inhibition at 10 µM in experiment [2] and in experiment [3] were 9% and 7%, respectively.

`N#CC(=C1CCN(C(=O)N2CC(C#N)C2)CC1)c1ccc(F)cc1` [Compound 23, 1-(4-(cyano(4-fluorophenyl)methylene)piperidine-1-carbonyl)azetidine-3-carbonitrile]: the inhibition at 0.5 µM in experiment [1] is 96%. Besides, the results for the inhibition at 10 µM in experiment [2] and in experiment [3] were 13% and 1%, respectively.

With `N#CC(=C1CCN(C(=O)N2CCc3[nH]cnc3C2)CC1)c1ccc(F)cc1` [Compound 24, 2-(4-fluorophenyl)-2-(1-(4,5,6,7-tetrahydro-1H-imidazo[4,5-c]pyridine-5-carbonyl)piperidin-4-ylidene)acetonitrile], the inhibition at 0.5 µM in experiment [1] came out at 96%. Further, the results for the inhibition at 10 µM in experiment [2] and in experiment [3] were 8% and 11%, respectively.

Take `N#CC(=C1CCN(C(=O)N2CCc3[nH]ncc3C2)CC1)c1ccc(F)cc1` [Compound 25, 2-(4-fluorophenyl)-2-(1-(4,5,6,7-tetrahydro-1H-pyrazolo[4,3-c]pyridine-5-carbonyl)piperidin-4-ylidene)acetonitrile]: the inhibition at 0.5 µM in experiment [1] amounted to 98%. Besides, the results for the inhibition at 10 µM in experiment [2] and in experiment [3] were 28% and 27%, respectively.

Consider `N#CC(=C1CCN(C(=O)N2CCn3ncnc3C2)CC1)c1ccc(F)cc1` [Compound 26, 2-(4-fluorophenyl)-2-(1-(5,6,7,8-tetrahydro-[1,2,4]triazolo[1,5-a]pyrazine-7-carbonyl)piperidin-4-ylidene)acetonitrile], for which the inhibition at 0.5 µM in experiment [1] came to 97%. Besides, the inhibition at 10 µM is 6% in experiment [2] and 13% in experiment [3].

`N#CC(=C1CCN(C(=O)N2CCn3cncc3C2)CC1)c1ccc(F)cc1` [Compound 27, 2-(4-fluorophenyl)-2-(1-(5,6,7,8-tetrahydroimidazo[1,5-a]pyrazine-7-carbonyl)piperidin-4-ylidene)acetonitrile]: the inhibition at 0.5 µM in experiment [1] was 98%. For the same compound, the inhibition at 10 µM in experiment [2] was 16%; in experiment [3] it was 7%.

As for `N#CC(=C1CCN(C(=O)N2CCn3cccc3C2)CC1)c1ccc(F)cc1` [Compound 28, 2-(4-fluorophenyl)-2-(1-(1,2,3,4-tetrahydropyrrolo[1,2-a]pyrazine-2-carbonyl)piperidin-4-ylidene)acetonitrile], in experiment [1], the inhibition at 0.5 µM came out at 97%. Besides, the inhibition at 10 µM came out at 8% in experiment [2] and 27% in experiment [3].

For the compound `N#CC(=C1CCN(C(=O)N2C[C@@H]3CC[C@@H]2C3)CC1)c1ccc(F)cc1` [Compound 29, 2-(1-((1R,4R)-2-azabicyclo[2.2.1]heptane-2-carbonyl)piperidin-4-ylidene)-2-(4-fluorophenyl)acetonitrile], in experiment [1], the inhibition at 0.5 µM worked out at 96%. The values for the inhibition at 10 µM in experiment [2] and in experiment [3] were 5% and 30%, respectively.

Regarding `N#CC(=C1CCN(C(=O)N2CCc3cccnc32)CC1)c1ccc(F)cc1` [Compound 30, 2-(1-(2,3-dihydro-1H-pyrrolo[2,3-b]pyridine-1-carbonyl)piperidin-4-ylidene)-2-(4-fluorophenyl)acetonitrile], the inhibition at 0.5 µM in experiment [1] stood at 95%. The results for the inhibition at 10 µM in experiment [2] and in experiment [3] were 15% and 14%, respectively.
